Results taken from patent US20110308790A1, “IN SITU METHANOGENESIS MODELING AND RISK ANALYSIS” (CONOCOPHILLIPS COMPANY, priority 2010, published 2011).

Tested on: microbes in production water
Assay: biomass control with NaOCl solution (viable count CFU/mL)
Assay type: cell-based
Conditions: 0.03-0.6% NaOCl, 23 hours, presence or absence of oxygen
Experimental: The procedures to test the effectiveness, and the minimum dose, of NaOCl that is required to eliminate biomass in the injection line and injection well-bore during the field biogasification process are the following. The initial population of microbes in production water, placed in tubes that were to be incubated under defined oxygen saturation conditions was determined either by direct counting of cells using a Petroff Hausser bacterial counting chamber, or by counting the colony forming units (CFU/mL) of microorganisms that developed on specialized media after incubation for specific period. The population of microbes that were present in the incubated tubes (also with added carbon source-coal and nutrient additions) was determined over time after methane was detected in the headspace of the tubes. Thereafter, the same tubes were amended with different concentrations (0.6%, 0.3%, 0.15%, 0.1%, 0.075%, 0.06%, 0.03% and 0%) of NaOCl solution followed by incubation of the tubes for 23 hours to allow the biomolecule-oxidizing action of the solution to come to appreciable completion. Immediately after this, the population of viable microbes (i.e. CFU/mL) in the NaOCl-amended tubes was determined by plating a specific volume of the culture on defined solid medium.

OCl [NaOCl, sodium hypochlorite]
inactivation of microorganisms (viable CFU/mL): effective in inactiving microorganisms
